Results published in patent publication US11366101B1, “Ex vivo systems and methods for determining the effect of a drug or other agent on a tissue” (Elephas Biosciences Corporation, priority 2020, dated 2022).

Tests used:
live tumor fragment = assay: Diffusion of a small molecule drug and an antibody into a live tumor fragment (fluorescence imaging); assay type: in vitro ADME; details: live tumor fragment cultured at 37° C., time after addition
Experimental: Notable was gradual appearance of doxorubicin-characteristic fluorescence first in the periphery of tissue fragment at 15 minutes followed by full-thickness staining of the entire fragment area at 2 hours. […] Notable is plateau staining within about 5 h. As noted by this experiment, both small molecule drugs and large antibodies diffused into the live tissue fragments.

EMT6 tumor fragments [1] = assay: Label-free MP-FLIM of NAD(P)H fluorescence lifetime in cultured tumor fragments; assay type: cell-based, mouse; details: 24 hours of exposure vs 0 h, p<0.002
Experimental: Live EMT6 tumors were cut into tissue fragments that were then sorted and cultured in glass-bottomed multi-well plates. To induce cancer cell death, one group was treated with the multi-kinase inhibitor, staurosporine (STS), and the control group was treated with the vehicle (Veh). Before (0 h) and after treatment (24 h), the structure and metabolic status of tumor fragments were imaged based on the intrinsically fluorescent metabolic co-factor nicotinamide dinucleotides (NAD(P)H) fluorescence intensity and lifetime using MP-FLIM by time-correlated single photon counting. The data was analyzed by fitting fluorescence decay curves with dual exponents. […] Each dot represents one fragment.

EMT6 tumor fragments [2] = assay: NAD(P)H intensity multiphoton microscopy versus propidium iodide viability ground truth in cultured tumor fragments; assay type: cell-based, mouse; details: after 24 h, treated versus untreated
Experimental: Live EMT6 tumors were cut into tissue fragments that were then sorted and cultured in glass-bottomed multi-well plates. To induce cancer cell death, one group was treated with the multi-kinase inhibitor, staurosporine (STS), and the control group was untreated. After 24 h, the structure and metabolic status of tumor fragments were imaged based on the intrinsically fluorescent metabolic co-factor nicotinamide dinucleotides (NAD(P)H) fluorescence intensity using multiphoton microscopy with 720 nm excitation. […] For structural reference, the second harmonic generation was also imaged (blue).

[3] = system: human live tumor fragments; assay: Supernatant cytokines of live tumor fragments by LEGENDPlex bead immunoassay, human; assay type: cell-based; details: cultured 48 or 72 h; for presence of IFN-γ and cytokines associated with immune activation relative to the untreated control: human samples
Experimental: (§1) Human tumor excisions were obtained from the University of Wisconsin (Institutional Review Board (IRB) approved) and CT26 tumors were grown in mice. Tumor excisions were cut into […] live tumor fragments of 100-300 μm thickness, sorted into multi-well plates, and cultured for 48 or 72 h in the presence or absence of anti-PD1 (nivolumab or mouse equivalent), anti-PD1 plus anti-CTLA4 (ipilimumab or mouse equivalent), or concanavalin A (ConA) as a positive control. Cell viability was ascertained by ATP luminescence assay or flow cytometry (not shown). Supernatant cytokines were measured using LEGENDPlex bead immunoassay. […] The presence of cytokines was greater in wells with 10 fragments than in wells with 3 fragments, indicating suitability of culture conditions.

CT26 tumor fragments = assay: Supernatant cytokines of live tumor fragments by LEGENDPlex bead immunoassay, mouse; assay type: cell-based; details: mouse specimens, cultured 48 or 72 h
Experimental: as §1

Molecule: COc1cccc2c1C(=O)c1c(O)c3c(c(O)c1C2=O)C[C@@](O)(C(=O)CO)C[C@@H]3O[C@H]1C[C@H](N)[C@H](O)[C@H](C)O1 [doxorubicin]
- appearance of doxorubicin-characteristic fluorescence in the periphery of tissue fragment (live tumor fragment): 15 min
- full-thickness staining of the entire fragment area (live tumor fragment): 2 h

Molecule: CN[C@@H]1C[C@H]2O[C@@](C)([C@@H]1OC)n1c3ccccc3c3c4c(c5c6ccccc6n2c5c31)C(=O)NC4 [staurosporine]
- NAD(P)H short lifetime component (a1) (EMT6 tumor fragments [1]): concomitant decrease
- whole fragment NAD(P)H mean lifetime (tm) (EMT6 tumor fragments [1]): statistically significant increase
- PI-stained nuclei (dead cells) (EMT6 tumor fragments [2]): increased numbers of PI-stained nuclei
- NAD(P)H intensity (EMT6 tumor fragments [2]; 720 nm excitation): loss of NAD(P)H intensity

Molecule: anti-PD1: immunotherapy drug anti-PD1 (nivolumab or mouse equivalent)
- cytokine panel upregulation, fold increase relative to untreated control ([3]; human LTFs): cytokine panel upregulation was observed
- presence of IFN-γ and cytokines associated with immune activation relative to the untreated control [3]: greater presence of IFN-γ and 16 cytokines
- presence of IFN-γ and cytokines associated with immune activation, fold increase in relation to the untreated control (CT26 tumor fragments): greater presence of IFN-γ and 10 cytokines

Molecule: concanavalin A [ConA]
- presence of IFN-γ and cytokines associated with immune activation relative to the untreated control [3]: greater presence of IFN-γ and 16 cytokines
